Measurements taken from the NIST ThermoML archive (doi:10.1021/je700406p).
Numbers after ± are expanded uncertainties.

Conditions: Liquid, Vibrating tube method

CC(C)(N)CO [2-amino-2-methylpropan-1-ol]
mass density [kg/m3]
Conditions | 313.06 K | 322.98 K | 332.91 K | 342.84 K | 352.79 K | 362.65 K
500 kPa | – | 922.7 ± 4.6 | 914 ± 4.5 | 905.4 ± 4.5 | 896.8 ± 4.4 | –
504 kPa | – | – | – | – | – | 888 ± 4.3
1000 kPa | 931.4 ± 4.7 | 922.8 ± 4.6 | 914.4 ± 4.6 | 905.7 ± 4.5 | 897.2 ± 4.4 | –
1002 kPa | – | – | – | – | – | 888.4 ± 4.3
2000 kPa | 931.9 ± 4.7 | 923.4 ± 4.6 | 915 ± 4.6 | 906.4 ± 4.5 | 897.9 ± 4.4 | 889 ± 4.3
3000 kPa | 932.4 ± 4.7 | 924 ± 4.6 | 915.6 ± 4.6 | 907 ± 4.5 | 898.5 ± 4.4 | 889.7 ± 4.3
4000 kPa | 932.9 ± 4.7 | 924.5 ± 4.7 | 916.1 ± 4.6 | 907.6 ± 4.5 | – | 890.5 ± 4.3
4001 kPa | – | – | – | – | 899.2 ± 4.4 | –
5000 kPa | 933.5 ± 4.7 | 925.1 ± 4.7 | 916.7 ± 4.6 | 908.3 ± 4.5 | 899.9 ± 4.4 | 891.2 ± 4.4
6000 kPa | 933.9 ± 4.8 | 925.7 ± 4.7 | 917.3 ± 4.6 | 908.9 ± 4.5 | 900.5 ± 4.4 | 891.8 ± 4.4
7000 kPa | 934.5 ± 4.8 | 926.2 ± 4.7 | 918 ± 4.6 | 909.5 ± 4.5 | – | 892.5 ± 4.4
7001 kPa | – | – | – | – | 901.2 ± 4.5 | –
8000 kPa | 935 ± 4.8 | 926.8 ± 4.7 | 918.5 ± 4.6 | – | 901.8 ± 4.5 | –
8001 kPa | – | – | – | 910.1 ± 4.5 | – | 893.2 ± 4.4
9007 kPa | 935.5 ± 4.8 | 927.4 ± 4.7 | – | – | – | –
9009 kPa | – | – | 919.1 ± 4.6 | 910.7 ± 4.5 | 902.4 ± 4.5 | –
9010 kPa | – | – | – | – | – | 893.9 ± 4.4
10002 kPa | – | 927.8 ± 4.7 | – | – | – | –
10003 kPa | 936 ± 4.8 | – | 919.7 ± 4.6 | 911.3 ± 4.6 | 903.1 ± 4.5 | 894.6 ± 4.4
11000 kPa | 936.6 ± 4.8 | 928.4 ± 4.7 | – | – | – | –
11001 kPa | – | – | – | 911.9 ± 4.6 | 903.7 ± 4.5 | 895.2 ± 4.4
11002 kPa | – | – | 920.2 ± 4.6 | – | – | –
12000 kPa | 937 ± 4.8 | 928.9 ± 4.7 | – | 912.5 ± 4.6 | 904.3 ± 4.5 | 895.8 ± 4.4
12001 kPa | – | – | 920.8 ± 4.6 | – | – | –
13000 kPa | 937.6 ± 4.8 | 929.5 ± 4.7 | 921.3 ± 4.7 | 913.1 ± 4.6 | – | –
13001 kPa | – | – | – | – | 904.9 ± 4.5 | 896.5 ± 4.4
14000 kPa | 938.1 ± 4.8 | 930.1 ± 4.7 | 921.9 ± 4.7 | 913.6 ± 4.6 | 905.5 ± 4.5 | 897.1 ± 4.4
15002 kPa | 938.6 ± 4.8 | – | 922.4 ± 4.7 | – | 906.1 ± 4.5 | –
15003 kPa | – | 930.6 ± 4.7 | – | 914.3 ± 4.6 | – | 897.8 ± 4.5
16000 kPa | 939.1 ± 4.8 | – | – | – | – | –
16001 kPa | – | – | 923 ± 4.7 | 914.8 ± 4.6 | 906.7 ± 4.5 | 898.4 ± 4.5
16006 kPa | – | 931.1 ± 4.8 | – | – | – | –
17000 kPa | – | – | – | – | – | 899.1 ± 4.5
17001 kPa | 939.7 ± 4.8 | 931.6 ± 4.8 | 923.5 ± 4.7 | 915.3 ± 4.6 | 907.4 ± 4.5 | –
18002 kPa | 940.2 ± 4.8 | 932.1 ± 4.8 | 924.1 ± 4.7 | 915.9 ± 4.6 | 907.9 ± 4.6 | 899.7 ± 4.5
18997 kPa | – | – | – | – | 908.5 ± 4.6 | –
19000 kPa | 940.6 ± 4.8 | 932.6 ± 4.8 | 924.6 ± 4.7 | 916.5 ± 4.6 | – | 900.3 ± 4.5
20029 kPa | 941.1 ± 4.9 | – | – | – | – | –
20030 kPa | – | 933.2 ± 4.8 | 925.2 ± 4.7 | 917.1 ± 4.6 | 909.1 ± 4.6 | 901 ± 4.5
21001 kPa | – | – | – | – | 909.7 ± 4.6 | –
21002 kPa | – | – | 925.6 ± 4.7 | – | – | –
21004 kPa | 941.7 ± 4.9 | – | – | – | – | 901.6 ± 4.5
21005 kPa | – | 933.7 ± 4.8 | – | 917.6 ± 4.6 | – | –
22004 kPa | 942.1 ± 4.9 | 934.1 ± 4.8 | 926.2 ± 4.7 | 918.1 ± 4.7 | 910.3 ± 4.6 | 902.2 ± 4.5
23000 kPa | – | – | 926.7 ± 4.7 | 918.7 ± 4.7 | 910.9 ± 4.6 | 902.8 ± 4.5
24003 kPa | – | – | – | – | – | 903.3 ± 4.5
24004 kPa | 943.1 ± 4.9 | 935.2 ± 4.8 | 927.3 ± 4.7 | 919.2 ± 4.7 | 911.4 ± 4.6 | –
